According to patent US20120225862A1, “HETEROARYL BENZAMIDES, COMPOSITIONS AND METHODS OF USE” (AUCKLAND UNIVSERVICES LIMITED, priority 2009, published 2012):
pIC50: −log10 of the molar value.

Experiments:
RCC4/VHL = test: XTT IC50 assay, selectivity RCC4 versus RCC4 with VHL-reintroduced; format: cell-based, human; conditions: selectivity ratio of XTT IC50 values, RCC4 vs RCC4/VHL
Procedure: (§1) RCC4 parental and RCC4 with VHL-reintroduced (RCC4/VHL), SN12C and SN12C-CSCG-VHL shRNA were maintained in DMEM supplemented with 10% FCS.
(§2) IC50 values for compounds were determined by XTT assay. For 2,3-bis[2-methoxy-4-nitro-5-sulfophenyl]-2H-tetrazolium-5-carboxanilide inner salt (XTT) assays, five thousand cells were plated in 96-well plates. The next day, vehicle or drug was added to each well and incubated for four days. Media was aspirated and phenol red-free medium with 0.3 mg/mL XTT and 2.65 ug/mL N-methyl dibenzopyrazine methyl sulfate was added. This was incubated at 37° C. for 1-2 hours and absorbance was read at 450 nm. IC50 values for each compound were calculated using linear interpolation.
(§3) For 2,3-bis[2-methoxy-4-nitro-5-sulfophenyl]-2H-tetrazolium-5-carboxanilide (XTT) assays, five thousand cells were plated in 96-well plates. The next day, vehicle (DMSO) or drug was added by serial dilution. Four days later, media were aspirated, XTT solution (0.3 mg/ml of XTT (Sigma), 2.65 mg/ml N-methyl dibenxopyrazine methyl sulfate (Simga) in phenol red-free media) was added, and the plates were incubated at 37° C. for 1-2 hours. Metabolism of XTT was quantified by measuring the absorbance at 450 nm. IC50s were calculated using linear interpolation. For clonogenic survival assays, three hundred cells were plated per 60 mm tissue culture dish. The cells were allowed to attach overnight and then treated with vehicle or drug for 14 days. Colonies were fixed and stained with crystal violet (0.1% crystal violet in 95% ethanol). All conditions were measured in triplicate and each experiment was done in duplicate or triplicate. To determine necrosis, cells were treated with drug for a given time point. Media and cells were collected, centrifugated, and resuspended in 0.4% trypan blue (Invitrogen). Live and dead cells were counted on a hematocytometer.

RCC4 = test: XTT IC50 / viability assay, RCC4 cells; format: cell-based, human; conditions: Homo sapiens, RCC4, 96 h; XTT assay, four days
Procedure: as §1, §2, §3

SMILES	Ratio (RCC4:RCC/VHL) (RCC4/VHL)	pIC50 (RCC4)
CC(C)(C)c1ccc(S(=O)(=O)NCc2ccc(C(=O)Nc3cccnc3Cl)cc2)cc1 [Example 113, 4-({[(4-tert-Butylphenyl)sulfonyl]amino}methyl)-N-(2-chloro-3-pyridinyl)benzamide]	a (“a” reflects a ratio of RCC4/RCC-VHL+ ranging from 1 to 10)	< 4.70
NCCOCCOCCOCCOCCOCCOCC#Cc1ccc(S(=O)(=O)NCc2ccc(C(=O)Nc3ccncc3)cc2)cc1 [Example 105, 4-[({[4-(21-Amino-4,7,10,13,16,19-hexaoxahenicos-1-yn-1-yl)phenyl]sulfonyl}amino)methyl]-N-(4-pyridinyl)benzamide]		< 4.70
O=C(Nc1cccnc1)c1ccc(CNS(=O)(=O)c2ccc(-c3ccc(F)cc3)cc2)cc1 [Example 55, 4-({[(4′-Fluoro[1,1′-biphenyl]-4-yl)sulfonyl]amino}methyl)-N-(3-pyridinyl)benzamide]	b (“b” reflects from 10 to 100)	> 6.00
CN(C)Cc1ccc(S(=O)(=O)NCc2ccc(C(=O)Nc3cccnc3)cc2)cc1 [Example 77, 4-[({4-[(Dimethylamino)methyl]phenyl}sulfonyl)amino]methyl-N-(3-pyridinyl)benzamide]	b (“b” reflects from 10 to 100)	> 6.00
CN(C(=O)c1ccc(CNS(=O)(=O)c2ccc(C(C)(C)C)cc2)cc1)c1cccnc1 [Example 89, 4-[(4-tert-Butylphenylsulfonamido)methyl]-N-methyl-N-(3-pyridinyl)benzamide]	a (“a” reflects a ratio of RCC4/RCC-VHL+ ranging from 1 to 10)	4.70 to 6.00
O=C(Nc1cccnc1)c1ccc(CNS(=O)(=O)c2ccc(-c3cnco3)cc2)cc1 [Example 60, 4-[({[4-(1,3-Oxazol-5-yl)phenyl]sulfonyl}amino)methyl]-N-(3-pyridinyl)benzamide]	b (“b” reflects from 10 to 100)	> 6.00
CC(C)(C)c1ccc(S(=O)(=O)NCc2ccc(C(=O)Nc3cnccc3Cl)cc2)cc1 [Example 112, 4-({[(4-tert-Butylphenyl)sulfonyl]amino}methyl)-N-(4-chloro-3-pyridinyl)benzamide]	a (“a” reflects a ratio of RCC4/RCC-VHL+ ranging from 1 to 10)	< 4.70
O=C(Nc1cccnc1)c1ccc(CNS(=O)(=O)c2ccc(N3CCOCC3)cc2)cc1 [Example 127, 4-[({[4-(4-Morpholinyl)phenyl]sulfonyl}amino)methyl]-N-(3-pyridinyl)benzamide]	b (“b” reflects from 10 to 100)	> 6.00
O=C(Nc1cccnc1)c1ccc(CNS(=O)(=O)c2ccc3ccccc3c2)cc1 [Example 72, 4-((Naphthalene-2-sulfonamido)methyl)-N-(pyridin-3-yl)benzamide]	b (“b” reflects from 10 to 100)	4.70 to 6.00
O=C(Nc1cccnc1)c1ccc(CNS(=O)(=O)c2cccc(N3CCOCC3)c2)cc1 [Example 126, 4-[({[3-(4-Morpholinyl)phenyl]sulfonyl}amino)methyl]-N-(3-pyridinyl)benzamide]	b (“b” reflects from 10 to 100)	4.70 to 6.00
O=C(Nc1cccnc1)c1ccc(CNS(=O)(=O)c2ccccc2Br)cc1 [Example 13, 4-((2-Bromophenylsulfonamido)methyl)-N-(pyridin-3-yl)benzamide]	a (“a” reflects a ratio of RCC4/RCC-VHL+ ranging from 1 to 10)	4.70 to 6.00
O=C(Nc1cccnc1)c1ccc(CNS(=O)(=O)c2ccc(F)cc2)cc1 [Example 43, 4-((4-Fluorophenylsulfonamido)methyl)-N-(pyridin-3-yl)benzamide]	a (“a” reflects a ratio of RCC4/RCC-VHL+ ranging from 1 to 10)	4.70 to 6.00
O=C(Nc1cccnc1)c1ccc(CNS(=O)(=O)c2ccccc2F)cc1 [Example 11, 4-((2-Fluorophenylsulfonamido)methyl)-N-(pyridin-3-yl)benzamide]	a (“a” reflects a ratio of RCC4/RCC-VHL+ ranging from 1 to 10)	4.70 to 6.00
Cc1cccc(S(=O)(=O)NCc2ccc(C(=O)Nc3cccnc3)cc2)c1 [Example 19, 4-((3-Methylphenylsulfonamido)methyl)-N-(pyridin-3-yl)benzamide]	b (“b” reflects from 10 to 100)	> 6.00
Cc1ccc(S(=O)(=O)NCc2ccc(C(=O)Nc3cccnc3)cc2)cc1Cl [Example 69, 4-((3-Chloro-4-methylphenylsulfonamido)methyl)-N-(pyridin-3-yl)benzamide]	b (“b” reflects from 10 to 100)	> 6.00
O=C(Nc1cccnc1)c1ccc(CNS(=O)(=O)c2ccc(-c3ccccc3)cc2)cc1 [Example 54, 4-((Biphenyl-4-ylsulfonamido)methyl)-N-(pyridin-3-yl)benzamide]	b (“b” reflects from 10 to 100)	4.70 to 6.00
CC(C)(C)c1ccc(C(=O)NCc2ccc(C(=O)Nc3cccnc3)cc2)cc1 [Example 86, 4-tert-Butyl-N-(4-(pyridin-3-ylcarbamoyl)benzyl)benzamide]		< 4.70
CN(C)CCCc1ccc(S(=O)(=O)NCc2ccc(C(=O)Nc3cccnc3)cc2)cc1 [Example 142, 4-{[({4-[3-(Dimethylamino)propyl]phenyl}sulfonyl)amino]methyl}-N-(3-pyridinyl)benzamide]	b (“b” reflects from 10 to 100)	> 6.00
O=C(Nc1cccnc1)c1ccc(CNS(=O)(=O)c2ccc(CCCN3CCOCC3)cc2)cc1 [Example 141, 4-{[({4-[3-(4-Morpholinyl)propyl]phenyl}sulfonyl)amino]methyl}-N-(3-pyridinyl)benzamide]	c (“c” reflects a ratio of >100)	> 6.00
CC(C)(C)c1ccc(S(=O)(=O)NCc2cccc(C(=O)Nc3cccnc3)c2)cc1 [Example 91, 3-[(4-tert-Butylphenylsulfonamido)methyl]-N-(3-pyridinyl)benzamide]		< 4.70
O=C(Nc1ccccn1)c1ccc(CNS(=O)(=O)c2ccccc2)cc1 [Example 1, 4-(Phenylsulfonamidomethyl)-N-(pyridin-2-yl)benzamide]		< 4.70
O=C(Nc1ccncc1)c1ccc(CNS(=O)(=O)c2ccccc2)cc1 [Example 3, 4-(Phenylsulfonamidomethyl)-N-(pyridin-4-yl)benzamide]		< 4.70
O=C(Nc1ccncc1)c1ccc(CNS(=O)(=O)c2ccc(F)cc2)cc1 [Example 97, 4-[(4-Fluorophenylsulfonamido)methyl]-N-(4-pyridinyl)benzamide]		< 4.70
Cc1cc(C)cc(CNCc2ccc(C(=O)Nc3cccnc3)cc2)c1 [Compound C, reference compound]		< 4.70
O=C(Nc1ccncc1)c1ccc(CNS(=O)(=O)c2ccc(Br)cc2)cc1 [Example 96, 4-[(4-Bromophenylsulfonamido)methyl]-N-(4-pyridinyl)benzamide]		< 4.70
CC(C)(C)c1ccc(COC(=O)NCc2ccc(C(=O)Nc3cccnc3)cc2)cc1 [Compound D, reference compound]		< 4.70
O=C(Nc1cccnc1)c1cccc(CNS(=O)(=O)c2ccccc2)c1 [Example 92, 3-[(Phenylsulfonamido)methyl]-N-(3-pyridinyl)benzamide]		< 4.70
